{"source": "paper PMC8298439", "about": "“Development of a mechanistic model to predict synthetic biotic activity in healthy volunteers and patients with phenylketonuria” (Communications Biology, 2021)", "target": "T1, PAL (phenylalanine ammonia lyase) of SYNB1618 (Photorhabdus laumondii, UniProt Q7N4T3)", "T1 construct": "gene plu2234; expressed in cytosol of engineered E. coli Nissle 1917 (SYNB1618, with PheP transporter, dapA deleted); whole-cell assay, LAAD not induced; multimeric", "T1 sequence (Q7N4T3 entry or part of it)": "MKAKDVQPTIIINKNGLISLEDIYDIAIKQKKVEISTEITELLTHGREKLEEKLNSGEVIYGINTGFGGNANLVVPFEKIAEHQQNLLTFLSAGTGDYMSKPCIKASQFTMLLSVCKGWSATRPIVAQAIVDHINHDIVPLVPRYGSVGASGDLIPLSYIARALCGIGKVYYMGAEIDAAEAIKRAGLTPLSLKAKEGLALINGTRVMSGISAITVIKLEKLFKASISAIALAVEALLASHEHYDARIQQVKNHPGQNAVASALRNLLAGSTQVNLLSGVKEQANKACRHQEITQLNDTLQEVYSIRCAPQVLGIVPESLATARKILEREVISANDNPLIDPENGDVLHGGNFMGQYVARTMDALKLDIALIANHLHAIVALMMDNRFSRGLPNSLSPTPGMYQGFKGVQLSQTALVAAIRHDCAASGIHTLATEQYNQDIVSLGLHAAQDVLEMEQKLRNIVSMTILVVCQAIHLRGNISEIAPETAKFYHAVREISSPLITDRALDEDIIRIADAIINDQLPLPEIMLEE", "experiment": "d5-TCA formation from d5-Phe by whole SYNB1618 cells, LC-MS/MS", "assay_type": "cell-based", "conditions": "whole-cell product (feedback) inhibition; 20 mM d5-Phe; 0.0–8.0 mM exogenous unlabeled TCA; 60 min", "data": [{"smiles": "O=C(O)/C=C/c1ccccc1", "note": "[TCA]", "values": [{"measurement": "% decrease of de novo d5-TCA production", "result": "up to 60"}]}]}
